Data on two compounds can be found in publication PMC9917735, “Optimization of the Hemolysis Assay for the Assessment of Cytotoxicity” (International Journal of Molecular Sciences, 2023).

The conditions of data set [1]: cited from earlier work. As for the experimental part: OD measurements of human whole blood treated with hemolyzing agents or AMPs at 405 nm (A), 530 nm (B), and 570 nm (C) were recorded (Figure 6) and HRs calculated (Table 5). For comparison, we also included the two previously well-characterized AMPs melittin and polymyxin B, which exert high and low cytotoxicity, respectively. […] From 530 and 570 nm measurements, the expected conce ...

A further data set relates to human whole blood. To be noted: human whole blood, 60 min 37 °C; for Calculated hemolysis ratio: peptides 100 μM, neg. PBS, 3 x 2 replicates.
For data set [2], the system named is washed human erythrocytes. Kind of data set: Hemolysis assay, washed human erythrocytes. To be noted: peptides 100 μM, 60 min 37 °C, pos. 10% Triton X-100, neg. PBS, 3 x 2 replicates.
Protocol: (§1) Blood is drawn from a human or an animal, and next, the washed erythrocytes are incubated together with the compound or material under investigation. If the compound causes hemolysis, hemoglobin (along with other cellular constituents) will be released into the supernatant.
(§2) All blood was collected in Lithium Heparin tubes 4 mL (Greiner Bio-One, Kremsmünster, Austria) or Coagulation sodium citrate 3.2% tubes 3 mL (Greiner Bio-One).
(§3) These three peptides were synthesized by Genscript Inc. (Piscataway, NJ, USA), and stock solutions of 1 mg/mL were made from the purchased powders. […] All peptides were diluted to yield a 100 μM final concentration in the hemolysis assays.
(§4) Triton X-100 (T8787) and Tween-20 (P2287) detergents were purchased from Sigma Aldrich and diluted to obtain 10% stock solutions by weighing (w/v). A sodium Dodecyl Sulfate (SDS) 10% solution was purchased from Invitrogen (Waltham, MA, USA, 15553027). All subsequent dilutions annotated in figures were made from these stocks.
(§5) As soon as possible after phlebotomy, the blood samples were centrifuged at 1700× g for 5 min. The supernatant was removed by aspiration and 2 mL of PBS pH 7 was added. The washing step was repeated three times or until the supernatant was clear. After final aspiration, the remaining pellet was diluted 1:100 in PBS pH 7 to obtain a 1% erythrocyte suspension (or 1:100, 1:50, and 1:20 for assays testing the effect of erythrocyte concentration). For experiments using whole blood, the washing steps were not performed, but downstream experimentation was identical. For experiments performed with 96-well plates, 50 μL of test compound, water, or detergent were mixed with 50 μL of blood sample (1% erythrocyte suspension or whole blood). For experiments using larger volumes, 250 μL of test compound, water, or detergent were mixed with 250 μL blood sample in an Eppendorf tube. Samples were subsequently incubated at 37 °C for 60 min (or 15, 30, 60, 90, or 120 min for assays evaluating the effect of incubation time). After incubation, the plates/tubes were centrifuged at 1700× g for 5 min, and then 50 μL of the supernatants were transferred to transparent, flat-bottom 96-well plates (Anicrin, A013418). Finally, absorption was measured at 405, 530, and 570 nm in a Victor Nivo Multimode microplate reader (Perkin Elmer, Waltham, MA, USA).
Where [3] appears, read: OD 405 nm (signal saturated), pos. 10% SDS.
[4] abbreviates: OD 570 nm, pos. 10% Triton X-100 (table title; text says 10% SDS).

Where two headings read alike, the source gives them in different places.

Protocol for human whole blood: as §1, §2, §3, §4, §5

Take Polymyxin B [PMB, reference compound]: the “Cytotoxicity (qualitative)” value in data set [1] is reported as “low”. Further, the Calculated hemolysis ratio is on record as 3.1 ± 1.1% in the data set on human whole blood (setting [3]); 3 ± 2.4% in the data set on human whole blood (OD 530 nm, pos. 10% SDS); 4.5 ± 1.8% in the data set with human whole blood (setting [4]).

On to `CC[C@H](C)[C@H](NC(=O)CN)C(=O)NCC(=O)N[C@@H](C)C(=O)N[C@H](C(=O)N[C@@H](CC(C)C)C(=O)N[C@@H](CCCCN)C(=O)N[C@H](C(=O)N[C@@H](CC(C)C)C(=O)N[C@H](C(=O)N[C@H](C(=O)NCC(=O)N[C@@H](CC(C)C)C(=O)N1CCC[C@H]1C(=O)N[C@@H](C)C(=O)N[C@@H](CC(C)C)C(=O)N[C@H](C(=O)N[C@@H](CO)C(=O)N[C@@H](Cc1c[nH]c2ccccc12)C(=O)N[C@H](C(=O)N[C@@H](CCCCN)C(=O)N[C@@H](CCCNC(=N)N)C(=O)N[C@@H](CCCCN)C(=O)N[C@@H](CCCNC(=N)N)C(=O)N[C@@H](CCC(N)=O)C(=O)N[C@@H](CCC(N)=O)C(N)=O)[C@@H](C)CC)[C@@H](C)CC)[C@@H](C)O)[C@@H](C)O)C(C)C)C(C)C` [Melittin, reference compound], for which the “Cytotoxicity (qualitative)” value in data set [1] (previously well-characterized AMPs, ref [9],[33]) is listed as “high”. In addition, the “Blood clotting in whole blood” value with human whole blood (melittin 100 μM) was “clotting effect was also observed”. Also, the Calculated hemolysis ratio was 98.3 ± 1.4% in the data set on human whole blood (setting [3]); 36.6 ± 8.7% with human whole blood (OD 530 nm, pos. 10% SDS); 54 ± 15.5% in the data set on human whole blood (setting [4]); 78.4 ± 4.3% in data set [2] (1% washed human erythrocytes, OD 530 nm); 79.8 ± 8.2% in data set [2] (1% washed human erythrocytes, OD 570 nm); 84.4 ± 8.1% in data set [2] (Table 6: 1% washed human erythrocytes, OD 405 nm).
